The structures appear in SMILES notation. Values after ≈ are worked out from the molar mass of the structure shown.

The nature of data set [1]: Solubility in 50% acetone aqueous solution. The format is physicochemical. The procedure:
(§1) The solubility of A02-type crystal, A03-type crystal and A04-type crystal was measured for 50% acetone aqueous solution. The solubility is lowest for A04-type crystal at all temperatures.

The nature of data set [2]: Long term stability test (storage stability). In kind it is physicochemical. The following applies: powder X-ray diffraction, DSC, HPLC. The procedure: A04-type crystal samples were separately stored for 3 months under (1) 40° C./75% R.H., (2) 60° C./uncontrolled humidity, and (3) 25° C./uncontrolled humidity/D65 lamp (1000 lux) illumination (2 months under condition (3)), and the change in the crystal form of the samples before and after storage was measured by powder X-ray diffraction and DSC analysis and the change in the purity of the same was confirmed by HPLC measurement (using HPLC Condition 1 or HPLC Condition 2 shown below as the measurement conditions).

A short description of data set [3]: Hygroscopicity Test B (water absorption/dehydration behavior). To be noted: 25° C., humidity range of 5-95% R.H. In kind it is physicochemical. As for the experimental part: The water absorption/dehydration behavior of A04-type crystal was assessed using water balance measuring apparatus SGA-X100 (VTI) under the following conditions. Temperature: 25° C., measurement range: 5-95% R.H., measurement interval: 5%.

Data set [4] can be described thus: Assessment of filterability (constant pressure filtration test, Ruth plot). The format is physicochemical. To be noted: for Filtration Constant B / Cake Average Specific Resistance αm: crystallization slurry, applied pressure 100 kPa; for Filtration Constant B: from inclination of Ruth plot; for Cake Average Specific Resistance αm: constant pressure filtration. The text has this:
Slurries of A02-type crystal prepared by a method similar to that of the Variation of Reference Example 2 and A04-type crystal prepared by a method similar to that of Example 2 were used to perform constant pressure filteration test, and the cake-average filteration specific resistance αm was obtained by constant pressure filteration formula of Ruth shown in formula (1) to assess filterability. Note that the slurry used in the present test is the crystallization slurry immediately before the crystals are collected by filtration in the preparation of the crystals.
The calculation of cake average specific resistance αm [m/kg] was performed by plotting (Ruth plot) μ [m^3/m^2] and Δθ/Δν [sec/m], obtaining the filtration constant B from the inclination of the obtained line, and inserting the parameters shown in the filtration condition row of Table 1 to formula (2).

A short description of data set [5]: Assessment of the stability level (solubility, transformation, DSC). The following applies: all temperature range; A01- to A05-type crystals compared. In kind it is physicochemical. As for the experimental part: as §1
(§2) A05-type crystal was subjected to slurry agitation under room temperature and its solvent-mediated transformation was studied.
The schematic diagram showing the interrelation of the stability levels of the crystals based on the above result is presented as FIG. 4.

A short description of the next data set: Hygroscopicity Test A. In kind it is physicochemical. To be noted: relative humidity of 93% (KNO3 saturated aqueous solution), 25° C., 7 days. As for the experimental part: About 0.5 g of A04-type crystal was weighed into an (open) weighing bottle with a known mass to obtain a precise mass, then the weighing bottle was placed in a desiccator adjusted to a relative humidity of 93% by KNO3 saturated aqueous solution and stored at 25° C. for 7 days before measuring the change in mass.

The nature of data set [6]: Study of solvent-mediated transformation. In kind it is physicochemical. To be noted: slurry agitation in methyl ethyl ketone under room temperature.
Source text: as §2

Another data set has as its system mutant EGFR protein. The following applies: reported in Patent Document 1 (WO 2009/008371); cited from earlier work.
For a further data set, the system named is EML4-ALK fusion protein. To be noted: reported in Patent Document 1 (WO 2009/008371); cited from earlier work.

By Solubility is commonly meant the dissolved amount per volume that the medium holds. Read a high Solubility as much dissolved substance. `COc1cc(N2CCC(N3CCN(C)CC3)CC2)ccc1Nc1ncnc(Nc2ccccc2S(=O)(=O)C(C)C)n1` [A04-type crystal, N-{2-methoxy-4-[4-(4-methylpiperazin-1-yl)piperidin-1-yl]phenyl}-N′-[2-(propane-2-sulfonyl)phenyl]-1,3,5-triazine-2,4-diamine]: the values for the Solubility in [1] (25° C.), in [1] (40° C.) and in [1] (55° C.) were 4.5 mg/mL (≈ 7.75 mM), 8.0 mg/mL (≈ 13.8 mM) and 13.0 mg/mL (≈ 22.4 mM), respectively. Further, the “change in the crystal form or the purity after storage” value in [2] (25° C./uncontrolled humidity/D65 lamp (1000 lux) illumination, 2 months) is “no significant change”; in data set [2] (40° C./75% R.H., 3 months) it was “no significant change”; in [2] (60° C./uncontrolled humidity, 3 months), “no significant change”. Also, the “weight change through water absorption and dehydration” value in data set [3] is reported as “lower than 0.1%”. In data set [4], the “Filtration Constant B” value came out at 2201.7. In addition, the “Cake Average Specific Resistance αm” value in [4] was 8.43×10^8 m/kg. The “thermodynamic stability level among crystal forms of Compound A” value in data set [5] is listed as “most stable crystal”. Further, the “change in mass (hygroscopicity)” value in the data set “Hygroscopicity Test A” is “no significant change in mass”.
Take `COc1cc(N2CCC(N3CCN(C)CC3)CC2)ccc1Nc1ncnc(Nc2ccccc2S(=O)(=O)C(C)C)n1` [A02-type crystal, N-{2-methoxy-4-[4-(4-methylpiperazin-1-yl)piperidin-1-yl]phenyl}-N′-[2-(propane-2-sulfonyl)phenyl]-1,3,5-triazine-2,4-diamine]: the Solubility in data set [1] (25° C.) came out at 13.6 mg/mL (≈ 23.4 mM); in data set [1] (40° C.), 17.7 mg/mL (≈ 30.5 mM); in data set [1] (55° C.), 30.8 mg/mL (≈ 53 mM). For the same compound, the “Filtration Constant B” value in data set [4] is 81406. For the same compound, the “Cake Average Specific Resistance αm” value in data set [4] was 1.31×10^11 m/kg. Besides, the “cake average specific resistance relative to A04-type crystal” value in data set [4] (ratio of A02-type crystal to A04-type crystal, filtration time proportional) was “about 155 times”.
On to `COc1cc(N2CCC(N3CCN(C)CC3)CC2)ccc1Nc1ncnc(Nc2ccccc2S(=O)(=O)C(C)C)n1` [A03-type crystal, N-{2-methoxy-4-[4-(4-methylpiperazin-1-yl)piperidin-1-yl]phenyl}-N′-[2-(propane-2-sulfonyl)phenyl]-1,3,5-triazine-2,4-diamine], for which the Solubility in data set [1] (25° C.) was 5.3 mg/mL (≈ 9.13 mM); in [1] (40° C.), 8.5 mg/mL (≈ 14.6 mM); in data set [1] (55° C.), 16.1 mg/mL (≈ 27.7 mM).
`COc1cc(N2CCC(N3CCN(C)CC3)CC2)ccc1Nc1ncnc(Nc2ccccc2S(=O)(=O)C(C)C)n1` [A05-type crystal, N-{2-methoxy-4-[4-(4-methylpiperazin-1-yl)piperidin-1-yl]phenyl}-N′-[2-(propane-2-sulfonyl)phenyl]-1,3,5-triazine-2,4-diamine]: the solvent-mediated transformation result in data set [6] is “transformed to A04-type crystal after 1 minute of agitation”.
Consider `COc1cc(N2CCC(N3CCN(C)CC3)CC2)ccc1Nc1ncnc(Nc2ccccc2S(=O)(=O)C(C)C)n1` [Compound A, N-{2-methoxy-4-[4-(4-methylpiperazin-1-yl)piperidin-1-yl]phenyl}-N′-[2-(propane-2-sulfonyl)phenyl]-1,3,5-triazine-2,4-diamine], for which, in the data set on mutant EGFR protein, the “inhibitory activity against the kinase activity of mutant EGFR protein” value is given as “good inhibitory activity”. In the data set on EML4-ALK fusion protein, the “inhibitory activity against the kinase activity of EML4-ALK fusion protein” value was “good inhibitory activity”.

Source of the values: patent US20130059855A1, “CRYSTAL OF DI(ARYLAMINO)ARYL COMPOUND” (ASTELLAS PHARMA INC., priority 2010, published 2013).
